Legend:
Conditions in all cases: Hit No
[1] = target: T1, Adenine DNA glycosylase (Homo sapiens) (UniProt Q9UIF7);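 also: human MUTYH activity read as 594 nm fluorescence from cleavage and release of a quenched DNA duplex, coupled with APE1 for strand incision, lower signal meaning inhibition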
T1 sequence (whole entry): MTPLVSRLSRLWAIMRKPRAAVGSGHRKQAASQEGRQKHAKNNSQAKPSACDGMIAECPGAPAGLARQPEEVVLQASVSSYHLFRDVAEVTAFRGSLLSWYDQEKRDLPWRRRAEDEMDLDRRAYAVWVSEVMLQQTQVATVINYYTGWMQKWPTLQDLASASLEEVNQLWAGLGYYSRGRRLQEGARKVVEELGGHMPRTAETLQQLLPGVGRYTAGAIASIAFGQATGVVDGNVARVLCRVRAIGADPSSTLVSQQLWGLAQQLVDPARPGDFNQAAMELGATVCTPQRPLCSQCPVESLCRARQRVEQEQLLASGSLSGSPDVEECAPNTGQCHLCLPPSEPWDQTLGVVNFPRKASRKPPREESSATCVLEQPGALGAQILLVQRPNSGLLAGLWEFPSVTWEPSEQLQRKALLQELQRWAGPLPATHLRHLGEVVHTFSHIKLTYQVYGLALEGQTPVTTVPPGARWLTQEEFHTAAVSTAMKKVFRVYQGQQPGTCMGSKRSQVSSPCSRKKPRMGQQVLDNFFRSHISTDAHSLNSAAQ
Description: Inhibition of MUTYH by quantifying inhibition of MUTYH-mediated cleavage and dissociation of quenched duplex DNA oligonucleotides, measured as fluorescence at 594 nm. To generate a functional strand incision and increase turn-over this assay is coupled to APE1.

[2] = target: T2, Single-strand selective monofunctional uracil DNA glycosylase (Homo sapiens) (UniProt Q53HV7);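 also: enzymatic SMUG1 assay coupled with APE1, reading fluorescence at 594 nm released when a quenched double-stranded DNA oligonucleotide substrate is cleaved and separated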
T2 sequence (whole entry): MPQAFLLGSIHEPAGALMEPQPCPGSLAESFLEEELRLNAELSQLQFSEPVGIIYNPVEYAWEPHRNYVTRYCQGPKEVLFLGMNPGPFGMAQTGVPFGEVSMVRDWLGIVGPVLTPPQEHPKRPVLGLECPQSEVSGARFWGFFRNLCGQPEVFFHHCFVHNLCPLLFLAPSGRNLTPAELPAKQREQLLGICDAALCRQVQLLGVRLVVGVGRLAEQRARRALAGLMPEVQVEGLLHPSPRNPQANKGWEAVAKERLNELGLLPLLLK
Description: Inhibition of SMUG1 by quantifying inhibition of SMUG1-mediated cleavage and dissociation of quenched duplex DNA oligonucleotides, measured as fluorescence at 594 nm. To generate a functional strand incision and increase turn-over this assay is coupled to APE1.

[3] = target: T3, Endonuclease 8-like 2 (Homo sapiens) (UniProt Q969S2);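 also: fluorescence at 594 nm reports NEIL2 cutting and release of a quenched double-stranded DNA oligo substrate, reduced signal read as inhibition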
T3 sequence (whole entry): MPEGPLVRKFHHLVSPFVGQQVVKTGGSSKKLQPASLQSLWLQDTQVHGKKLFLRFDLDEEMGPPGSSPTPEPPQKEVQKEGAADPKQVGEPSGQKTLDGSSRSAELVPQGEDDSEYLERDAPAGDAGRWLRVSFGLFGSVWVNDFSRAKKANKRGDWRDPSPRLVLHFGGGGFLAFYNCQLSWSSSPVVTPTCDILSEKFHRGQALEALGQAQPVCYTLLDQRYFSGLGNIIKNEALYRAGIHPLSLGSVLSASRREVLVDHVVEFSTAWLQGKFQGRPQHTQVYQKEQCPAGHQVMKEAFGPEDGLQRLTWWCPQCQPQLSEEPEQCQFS
Description: Inhibition of NEIL2 by quantifying inhibition of NEIL2-mediated cleavage and dissociation of quenched duplex DNA oligonucleotides, measured as fluorescence at 594 nm.

[4] = target: T4, Endonuclease III-like protein 1 (Homo sapiens) (UniProt P78549);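 also: enzyme assay tracking NTHL1 cutting and release of a quenched double-stranded DNA oligo substrate, read as fluorescence at 594 nm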
T4 sequence (whole entry): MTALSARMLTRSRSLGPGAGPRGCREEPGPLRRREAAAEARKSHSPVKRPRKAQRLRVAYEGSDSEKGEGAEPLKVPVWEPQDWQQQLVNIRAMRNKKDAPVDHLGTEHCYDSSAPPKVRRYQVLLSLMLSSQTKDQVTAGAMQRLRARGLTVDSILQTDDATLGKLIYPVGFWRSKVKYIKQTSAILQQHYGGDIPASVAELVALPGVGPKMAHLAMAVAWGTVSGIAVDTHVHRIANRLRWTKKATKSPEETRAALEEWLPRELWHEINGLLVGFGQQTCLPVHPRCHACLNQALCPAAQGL
Description: Inhibition of NTHL1 by quantifying inhibition of NTHL1-mediated cleavage and dissociation of quenched duplex DNA oligonucleotides, measured as fluorescence at 594 nm.

[5] = target: N-glycosylase/DNA lyase (Homo sapiens) (UniProt O15527);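 also: OGG1 cleavage of a quenched duplex DNA oligonucleotide, coupled to APE1 for strand incision, read as fluorescence at 594 nm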
N-glycosylase/DNA lyase (Homo sapiens), sequence (O15527 whole entry): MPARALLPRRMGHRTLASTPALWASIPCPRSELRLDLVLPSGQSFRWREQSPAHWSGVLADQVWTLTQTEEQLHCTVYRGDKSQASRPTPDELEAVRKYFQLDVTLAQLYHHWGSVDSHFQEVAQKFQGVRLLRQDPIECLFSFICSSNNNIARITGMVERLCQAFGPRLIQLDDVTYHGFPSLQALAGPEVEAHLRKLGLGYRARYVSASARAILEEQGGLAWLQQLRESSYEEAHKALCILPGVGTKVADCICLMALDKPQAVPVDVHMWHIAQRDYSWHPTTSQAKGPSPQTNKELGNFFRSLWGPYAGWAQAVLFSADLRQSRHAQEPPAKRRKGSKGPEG
Description: Inhibition of OGG1 by quantifying inhibition of OGG1-mediated cleavage and dissociation of quenched duplex DNA oligonucleotides, measured as fluorescence at 594 nm. To generate a functional strand incision and increase turn-over this assay is coupled to APE1.

[6] = target: Endonuclease 8-like 1 (Homo sapiens) (UniProt Q96FI4);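 also: fluorescence at 594 nm from quenched duplex DNA oligonucleotides released by NEIL1 cleavage and strand separation, reported as reduction of this enzyme activity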
Endonuclease 8-like 1 (Homo sapiens), sequence (Q96FI4 whole entry): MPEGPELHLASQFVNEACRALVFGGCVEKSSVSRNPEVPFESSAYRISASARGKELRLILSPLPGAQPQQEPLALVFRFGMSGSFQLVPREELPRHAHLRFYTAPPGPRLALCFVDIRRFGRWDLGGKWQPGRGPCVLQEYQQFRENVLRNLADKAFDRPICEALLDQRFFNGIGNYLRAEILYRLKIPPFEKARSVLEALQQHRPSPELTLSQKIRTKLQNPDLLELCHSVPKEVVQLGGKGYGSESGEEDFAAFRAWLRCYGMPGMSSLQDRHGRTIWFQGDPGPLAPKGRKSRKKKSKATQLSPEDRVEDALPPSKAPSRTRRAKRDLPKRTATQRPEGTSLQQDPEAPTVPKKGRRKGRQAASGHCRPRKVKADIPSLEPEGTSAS
Description: Inhibition of NEIL1 by quantifying inhibition of NEIL1-mediated cleavage and dissociation of quenched duplex DNA oligonucleotides, measured as fluorescence at 594 nm.

[7] = target: G/T mismatch-specific thymine DNA glycosylase (Homo sapiens) (UniProt Q13569);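 also: human TDG cleavage of quenched duplex DNA oligonucleotides coupled to APE1, strand release read as fluorescence at 594 nm, inhibition of TDG activity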
G/T mismatch-specific thymine DNA glycosylase (Homo sapiens), sequence (Q13569 whole entry, the tested form may be a part): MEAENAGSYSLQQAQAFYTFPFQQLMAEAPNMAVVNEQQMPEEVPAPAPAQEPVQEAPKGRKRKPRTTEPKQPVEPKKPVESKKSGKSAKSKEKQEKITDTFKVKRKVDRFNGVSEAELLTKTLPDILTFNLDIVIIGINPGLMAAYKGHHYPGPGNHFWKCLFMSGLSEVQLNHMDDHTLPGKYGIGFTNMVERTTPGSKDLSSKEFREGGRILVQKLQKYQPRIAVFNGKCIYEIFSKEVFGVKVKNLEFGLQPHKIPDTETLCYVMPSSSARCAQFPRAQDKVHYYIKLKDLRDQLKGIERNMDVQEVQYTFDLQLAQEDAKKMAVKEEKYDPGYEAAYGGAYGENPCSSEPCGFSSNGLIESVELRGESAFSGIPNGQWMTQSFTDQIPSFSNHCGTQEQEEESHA
Description: Inhibition of TDG by quantifying inhibition of TDG-mediated cleavage and dissociation of quenched duplex DNA oligonucleotides, measured as fluorescence at 594 nm. To generate a functional strand incision and increase turn-over this assay is coupled to APE1.

[8] = target: Methyl-CpG-binding domain protein 4 (Homo sapiens) (UniProt O95243);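 also: MBD4 activity read as fluorescence at 594 nm from cleavage and release of a quenched duplex DNA oligonucleotide, with APE1 coupled to incise the strand and raise turnover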
Methyl-CpG-binding domain protein 4 (Homo sapiens), sequence (O95243 whole entry, the tested form may be a part): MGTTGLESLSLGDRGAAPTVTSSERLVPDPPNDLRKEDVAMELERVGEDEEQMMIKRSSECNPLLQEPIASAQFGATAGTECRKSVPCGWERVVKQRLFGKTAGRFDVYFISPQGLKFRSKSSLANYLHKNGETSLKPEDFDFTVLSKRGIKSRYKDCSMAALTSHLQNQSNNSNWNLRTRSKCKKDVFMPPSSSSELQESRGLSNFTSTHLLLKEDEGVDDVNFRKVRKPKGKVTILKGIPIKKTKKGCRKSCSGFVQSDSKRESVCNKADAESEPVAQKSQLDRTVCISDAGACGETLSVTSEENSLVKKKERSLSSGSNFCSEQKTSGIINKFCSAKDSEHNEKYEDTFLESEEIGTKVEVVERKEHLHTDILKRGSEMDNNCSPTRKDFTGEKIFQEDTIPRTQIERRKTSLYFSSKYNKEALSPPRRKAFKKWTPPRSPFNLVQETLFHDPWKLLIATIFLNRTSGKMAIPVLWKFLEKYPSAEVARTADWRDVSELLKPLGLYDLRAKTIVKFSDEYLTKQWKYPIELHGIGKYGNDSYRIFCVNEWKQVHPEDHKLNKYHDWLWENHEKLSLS
Description: Inhibition of MBD4 by quantifying inhibition of MBD4-mediated cleavage and dissociation of quenched duplex DNA oligonucleotides, measured as fluorescence at 594 nm. To generate a functional strand incision and increase turn-over this assay is coupled to APE1.

[9] = target: Uracil-DNA glycosylase (Homo sapiens) (UniProt P13051);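 also: UNG excision on a quenched double-stranded DNA oligo probe, with APE1 added for strand incision and turnover, read as fluorescence at 594 nm as strands separate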
Uracil-DNA glycosylase (Homo sapiens), sequence (P13051 whole entry): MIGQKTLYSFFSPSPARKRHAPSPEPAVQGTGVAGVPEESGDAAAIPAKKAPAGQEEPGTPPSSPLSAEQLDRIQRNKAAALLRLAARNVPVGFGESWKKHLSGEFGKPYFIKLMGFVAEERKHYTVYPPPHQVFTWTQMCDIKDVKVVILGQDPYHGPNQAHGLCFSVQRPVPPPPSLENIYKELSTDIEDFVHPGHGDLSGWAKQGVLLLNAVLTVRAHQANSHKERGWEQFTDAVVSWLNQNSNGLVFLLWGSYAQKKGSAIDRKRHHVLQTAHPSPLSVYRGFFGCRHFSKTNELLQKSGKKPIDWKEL
Description: Inhibition of UNG by quantifying inhibition of UNG-mediated cleavage and dissociation of quenched duplex DNA oligonucleotides, measured as fluorescence at 594 nm. To generate a functional strand incision and increase turn-over this assay is coupled to APE1.

CC(C)(C)NC[C@H](O)COc1nsnc1N1CCOCC1
inhibition ([1]; Compound Concentration 10.0 uM): 2.84%
inhibition ([2]; Compound Concentration 10.0 uM): -0.808%
inhibition ([3]; Compound Concentration 10.0 uM): -5.47%
inhibition ([4]; Compound Concentration 10.0 uM): -8.34%
inhibition ([5]; Compound Concentration 10.0 uM): -3.29%
inhibition ([6]; Compound Concentration 10.0 uM): -6.13%
inhibition ([7]; Compound Concentration 10.0 uM): 9.57%
inhibition ([8]; Compound Concentration 10.0 uM): 2.07%

Cn1cncc1[C@@](O)(COc1ccc(C#N)cc1-c1ccc(OC(F)(F)F)cc1)c1ccc(C#N)cc1
inhibition ([1]; Compound Concentration 10.0 uM): -9.72%
inhibition ([2]; Compound Concentration 10.0 uM): -1.81%
inhibition ([4]; Compound Concentration 10.0 uM): 7.26%
inhibition ([5]; Compound Concentration 10.0 uM): 10.2%
inhibition ([7]; Compound Concentration 10.0 uM): 45.8%
inhibition ([9]; Compound Concentration 10.0 uM): -3.07%
inhibition ([8]; Compound Concentration 10.0 uM): 56%

CC(C)C(=O)Nc1n[nH]c2cc(-c3cccc(NS(=O)(=O)C4CC4)c3)ccc12
inhibition ([1]; Compound Concentration 10.0 uM): 2.74%
inhibition ([2]; Compound Concentration 10.0 uM): 13.9%
inhibition ([3]; Compound Concentration 10.0 uM): 0.236%
inhibition ([4]; Compound Concentration 10.0 uM): -0.61%
inhibition ([6]; Compound Concentration 10.0 uM): 4.76%
inhibition ([7]; Compound Concentration 10.0 uM): 40.3%
inhibition ([9]; Compound Concentration 10.0 uM): -0.0214%
inhibition ([8]; Compound Concentration 10.0 uM): -3.9%

Cc1nccc(COC(=O)N2C[C@@H]3[C@@H](CNC(=O)c4ccc5[nH]nnc5c4)[C@@H]3C2)n1
inhibition ([1]; Compound Concentration 10.0 uM): 10.4%
inhibition ([2]; Compound Concentration 10.0 uM): 19.9%
inhibition ([4]; Compound Concentration 10.0 uM): 0.685%
inhibition ([5]; Compound Concentration 10.0 uM): -5.03%
inhibition ([7]; Compound Concentration 10.0 uM): 59.6%
inhibition ([9]; Compound Concentration 10.0 uM): 1.28%
inhibition ([8]; Compound Concentration 10.0 uM): 55.9%

COc1ccc(NC(=O)[C@@H]2C[C@H](C)CC[C@H]2C(C)C)cc1
inhibition ([1]; Compound Concentration 10.0 uM): -7.01%
inhibition ([2]; Compound Concentration 10.0 uM): 11.3%
inhibition ([3]; Compound Concentration 10.0 uM): -3.15%
inhibition ([4]; Compound Concentration 10.0 uM): 15.4%
inhibition ([6]; Compound Concentration 10.0 uM): -2.36%
inhibition ([7]; Compound Concentration 10.0 uM): -1.07%
inhibition ([9]; Compound Concentration 10.0 uM): -3.01%
inhibition ([8]; Compound Concentration 10.0 uM): 1.36%

CN1C2CCCC1CC(Nc1ccccc1Br)C2 (configuration not stated)
inhibition ([1]; Compound Concentration 10.0 uM): 6.82%
inhibition ([2]; Compound Concentration 10.0 uM): -9%
inhibition ([3]; Compound Concentration 10.0 uM): -3.41%
inhibition ([4]; Compound Concentration 10.0 uM): 24.5%
inhibition ([6]; Compound Concentration 10.0 uM): -3.4%
inhibition ([7]; Compound Concentration 10.0 uM): -8.71%
inhibition ([9]; Compound Concentration 10.0 uM): -6.41%
inhibition ([8]; Compound Concentration 10.0 uM): 11.1%

CCn1c(=O)c(C)cn(Cc2nnc(-c3ccc(F)c(O)c3F)s2)c1=O
inhibition ([1]; Compound Concentration 10.0 uM): -9.23%
inhibition ([2]; Compound Concentration 10.0 uM): 3.85%
inhibition ([4]; Compound Concentration 10.0 uM): 2%
inhibition ([5]; Compound Concentration 10.0 uM): -4.39%
inhibition ([7]; Compound Concentration 10.0 uM): 48%
inhibition ([9]; Compound Concentration 10.0 uM): -4.5%
inhibition ([8]; Compound Concentration 10.0 uM): 53.9%

O=c1ccc2ccc(OCCCCN3CCN(c4cccc5sccc45)CC3)cc2[nH]1
inhibition ([1]; Compound Concentration 10.0 uM): 3.6%
inhibition ([2]; Compound Concentration 10.0 uM): -9.19%
inhibition ([3]; Compound Concentration 10.0 uM): -1.98%
inhibition ([4]; Compound Concentration 10.0 uM): 4.86%
inhibition ([5]; Compound Concentration 10.0 uM): -3.25%
inhibition ([6]; Compound Concentration 10.0 uM): 6.47%
inhibition ([7]; Compound Concentration 10.0 uM): -1.81%
inhibition ([8]; Compound Concentration 10.0 uM): -1.94%

COc1ccc(OC(=O)N(CC(=O)O)Cc2ccc(OCCc3nc(-c4ccccc4)oc3C)cc2)cc1
inhibition ([1]; Compound Concentration 10.0 uM): 29.2%
inhibition ([2]; Compound Concentration 10.0 uM): 20.2%
inhibition ([4]; Compound Concentration 10.0 uM): 5.94%
inhibition ([5]; Compound Concentration 10.0 uM): 27%
inhibition ([7]; Compound Concentration 10.0 uM): 53.7%
inhibition ([9]; Compound Concentration 10.0 uM): 3.56%
inhibition ([8]; Compound Concentration 10.0 uM): 67.6%

CN(C)CCOc1ccc(-c2nc(-c3ccncc3)c(-c3ccc4c(c3)CC/C4=N\O)[nH]2)cc1
inhibition ([1]; Compound Concentration 10.0 uM): 0.369%
inhibition ([2]; Compound Concentration 10.0 uM): -6.49%
inhibition ([3]; Compound Concentration 10.0 uM): 26.4%
inhibition ([4]; Compound Concentration 10.0 uM): 11.2%
inhibition ([6]; Compound Concentration 10.0 uM): 1.19%
inhibition ([7]; Compound Concentration 10.0 uM): 47.4%
inhibition ([9]; Compound Concentration 10.0 uM): 11.4%
inhibition ([8]; Compound Concentration 10.0 uM): 23.9%

Cc1nc(NC(=O)N2CCC[C@H]2C(N)=O)sc1-c1ccnc(C(C)(C)C(F)(F)F)c1
inhibition ([1]; Compound Concentration 10.0 uM): 6.32%
inhibition ([2]; Compound Concentration 10.0 uM): 16.5%
inhibition ([4]; Compound Concentration 10.0 uM): 12.6%
inhibition ([5]; Compound Concentration 10.0 uM): 12.9%
inhibition ([7]; Compound Concentration 10.0 uM): 38%
inhibition ([9]; Compound Concentration 10.0 uM): 2.95%
inhibition ([8]; Compound Concentration 10.0 uM): -5.03%

CNc1ncc2cc(-c3ccc(-c4ncccc4F)cc3Cl)c(=O)n(C[C@H]3OC[C@H](N)CO3)c2n1
inhibition ([1]; Compound Concentration 10.0 uM): 10.6%
inhibition ([2]; Compound Concentration 10.0 uM): 24.9%
inhibition ([3]; Compound Concentration 10.0 uM): -5.96%
inhibition ([4]; Compound Concentration 10.0 uM): -2%
inhibition ([6]; Compound Concentration 10.0 uM): 0.666%
inhibition ([7]; Compound Concentration 10.0 uM): 48.4%
inhibition ([9]; Compound Concentration 10.0 uM): 9.96%
inhibition ([8]; Compound Concentration 10.0 uM): 9.96%

Cc1cccc(CCN2CCC(C(=O)c3ccc(NS(C)(=O)=O)cc3)CC2)n1
inhibition ([1]; Compound Concentration 10.0 uM): -5.27%
inhibition ([2]; Compound Concentration 10.0 uM): -8.55%
inhibition ([3]; Compound Concentration 10.0 uM): -4.17%
inhibition ([4]; Compound Concentration 10.0 uM): 0.568%
inhibition ([6]; Compound Concentration 10.0 uM): 0.158%
inhibition ([7]; Compound Concentration 10.0 uM): 11.1%
inhibition ([9]; Compound Concentration 10.0 uM): -5.19%
inhibition ([8]; Compound Concentration 10.0 uM): -1.99%

COC[C@H](NC(=O)c1ccn(S(C)(=O)=O)c1)C(=O)Nc1nc(-c2cccc(-c3ccn(C)n3)c2)cs1
inhibition ([1]; Compound Concentration 1.0 uM): 2.68%
inhibition ([2]; Compound Concentration 1.0 uM): 16.9%
inhibition ([4]; Compound Concentration 1.0 uM): -3.92%
inhibition ([5]; Compound Concentration 1.0 uM): -7.59%
inhibition ([7]; Compound Concentration 1.0 uM): 48.2%
inhibition ([9]; Compound Concentration 1.0 uM): 4.22%
inhibition ([8]; Compound Concentration 1.0 uM): 43.1%

O=C1N/C(=N/c2ccccc2F)S/C1=C\c1ccc(C(=O)O)cc1
inhibition ([1]; Compound Concentration 10.0 uM): 3.09%
inhibition ([2]; Compound Concentration 10.0 uM): -0.227%
inhibition ([3]; Compound Concentration 10.0 uM): 3.51%
inhibition ([4]; Compound Concentration 10.0 uM): 17.3%
inhibition ([5]; Compound Concentration 10.0 uM): -2.53%
inhibition ([6]; Compound Concentration 10.0 uM): -0.204%
inhibition ([7]; Compound Concentration 10.0 uM): 3.04%
inhibition ([8]; Compound Concentration 10.0 uM): -3.22%

O[C@H]1CC[C@H](Nc2ncc3nc(Nc4c(F)cc(F)cc4F)n([C@H]4CCOC4)c3n2)CC1
inhibition ([1]; Compound Concentration 10.0 uM): 1.28%
inhibition ([2]; Compound Concentration 10.0 uM): 20.8%
inhibition ([4]; Compound Concentration 10.0 uM): 1.48%
inhibition ([5]; Compound Concentration 10.0 uM): 6.26%
inhibition ([7]; Compound Concentration 10.0 uM): 37.3%
inhibition ([9]; Compound Concentration 10.0 uM): 2.17%
inhibition ([8]; Compound Concentration 10.0 uM): -7.12%

Cn1cc(-n2cnc3c(NCc4nc5cc(Cl)c(Cl)cc5[nH]4)nc(N4CCOCC4)nc32)cn1
inhibition ([1]; Compound Concentration 10.0 uM): 9.84%
inhibition ([2]; Compound Concentration 10.0 uM): 25.7%
inhibition ([3]; Compound Concentration 10.0 uM): 1.04%
inhibition ([4]; Compound Concentration 10.0 uM): -7.58%
inhibition ([6]; Compound Concentration 10.0 uM): 6.21%
inhibition ([7]; Compound Concentration 10.0 uM): 40.7%
inhibition ([9]; Compound Concentration 10.0 uM): 3.73%
inhibition ([8]; Compound Concentration 10.0 uM): 6.19%

Cc1cc(F)c(C(=O)Nc2cccc(-c3nncn3C(C)C)n2)cc1-n1cnc(C2CC2)c1
inhibition ([1]; Compound Concentration 1.0 uM): 8.56%
inhibition ([2]; Compound Concentration 1.0 uM): 12.2%
inhibition ([3]; Compound Concentration 1.0 uM): 2.93%
inhibition ([4]; Compound Concentration 1.0 uM): -4.79%
inhibition ([6]; Compound Concentration 1.0 uM): 8.59%
inhibition ([7]; Compound Concentration 1.0 uM): 44.4%
inhibition ([9]; Compound Concentration 1.0 uM): -0.67%
inhibition ([8]; Compound Concentration 1.0 uM): 18.6%
